The source of these data is paper PMC6934184, “Selective DNA-PKcs inhibition extends the therapeutic index of localized radiotherapy and chemotherapy” (The Journal of Clinical Investigation, 2019).

The target in this experiment is T1, HIPK2 (Homo sapiens, UniProt Q9H2X6).
T1 construct: purchased Thermo Fisher Scientific (Life Technologies) SelectScreen
Description: SelectScreen Z'LYTE. The class given is biochemical. The method in brief: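 NU5455 was profiled across the SelectScreen Broad panel of kinase activity and binding assays. Z'LYTE reactions such as CSF1R ran at apparent Km ATP, while the Adapta CAMK1 assay used ATP listed as 10. Values are given as percent.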

A word on the inhibition: it is the drop in the measured response relative to a control, in per cent.

T1 sequence (Q9H2X6 whole entry): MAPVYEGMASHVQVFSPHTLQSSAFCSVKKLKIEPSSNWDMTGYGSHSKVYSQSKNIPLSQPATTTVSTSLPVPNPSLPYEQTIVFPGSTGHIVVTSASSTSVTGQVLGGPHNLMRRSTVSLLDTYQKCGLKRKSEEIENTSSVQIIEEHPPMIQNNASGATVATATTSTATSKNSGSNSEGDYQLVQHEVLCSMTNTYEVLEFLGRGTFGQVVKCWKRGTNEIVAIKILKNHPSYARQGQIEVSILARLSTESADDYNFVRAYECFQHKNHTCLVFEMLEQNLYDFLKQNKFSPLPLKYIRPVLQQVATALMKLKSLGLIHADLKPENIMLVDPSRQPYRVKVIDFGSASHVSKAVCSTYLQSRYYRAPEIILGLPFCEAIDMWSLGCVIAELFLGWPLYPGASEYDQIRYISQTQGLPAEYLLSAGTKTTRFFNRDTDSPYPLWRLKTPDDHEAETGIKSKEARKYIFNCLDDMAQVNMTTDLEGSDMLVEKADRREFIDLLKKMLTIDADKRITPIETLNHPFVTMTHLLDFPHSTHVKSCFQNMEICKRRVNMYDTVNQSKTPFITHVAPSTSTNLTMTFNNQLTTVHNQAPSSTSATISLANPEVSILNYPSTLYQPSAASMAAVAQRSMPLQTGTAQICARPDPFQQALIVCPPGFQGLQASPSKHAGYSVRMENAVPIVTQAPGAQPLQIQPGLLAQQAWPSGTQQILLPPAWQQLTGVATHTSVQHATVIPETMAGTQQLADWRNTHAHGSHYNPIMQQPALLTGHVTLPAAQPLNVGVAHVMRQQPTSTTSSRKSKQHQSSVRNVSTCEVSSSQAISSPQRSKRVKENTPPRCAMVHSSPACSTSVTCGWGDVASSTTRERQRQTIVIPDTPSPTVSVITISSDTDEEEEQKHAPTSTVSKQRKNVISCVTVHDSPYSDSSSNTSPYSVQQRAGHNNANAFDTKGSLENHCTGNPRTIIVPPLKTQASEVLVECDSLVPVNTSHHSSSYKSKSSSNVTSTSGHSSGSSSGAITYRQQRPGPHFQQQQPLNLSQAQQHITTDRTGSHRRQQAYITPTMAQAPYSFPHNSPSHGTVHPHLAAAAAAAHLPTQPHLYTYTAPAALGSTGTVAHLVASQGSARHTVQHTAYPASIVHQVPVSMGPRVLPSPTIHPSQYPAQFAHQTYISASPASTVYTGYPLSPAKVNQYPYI

On to `CN(C(=O)CN1CCOCC1)c1ccc2sc3c(-c4cccc5c(=O)cc(N6CC7CCC(C6)O7)oc45)cccc3c2c1` [NU5455], for which the inhibition at 1 µM was 7.8%.
